Data reported in patent publication US11613544B2, “Substituted imidazo[1,5-a]pyrazines for modulation of IRE1” (THE REGENTS OF THE UNIVERSITY OF CALIFORNIA, priority 2012, dated 2023).
“Also recorded” adds a separate entry of the source.

Legend:
[1] = test system: mouse embryonic fibroblasts (MEFs); assay: Cytoprotection in mouse embryonic fibroblasts; type: cell-based
IRE1α* [2] = biological target: T1, IRE1α* (Homo sapiens, UniProt O75460); assay: IRE1α* autophosphorylation kinase assay ([γ-32P]ATP, autoradiography); conditions: in vitro
Protocol: Inhibitors (initial concentration=80 μM, 2-fold serial dilutions) were incubated with IRE1α in cleavage buffer (20 mM Hepes at pH 7.5, 0.05% Triton X100, 50 mM KOAC, 1 mM Mg(OAC)2, 1 mM DTT) for 20 min, followed by incubation with 10 μCi [γ-^32P]ATP (3000 Ci/mmol, Perkin Elmer) at RT for 30 min. Samples were then separated by SDS-PAGE, and autoradiographed. The auto-phosphorylation level were quantified by setting the band intensity of IRE1α* without compound treatment as 1 and the background as 0.

Src = Src (Homo sapiens, UniProt P12931); assay: Kinase panel counter-screen; type: biochemical; conditions: tested against 12 kinases of the panel
[3] = test system: pancreatic islets from C57BL/6 mice; assay: Pancreatic islets treated with ER stress inducer (Tm); type: cell-based, mouse
Protocol: FIG. 30. KIRA6 inhibits IRE1α autophosphorylation, breaks oligomers, reduces RNase activity, and protects cells from entry into apoptosis. (A) Structure of KIRA6. (B) RNase activities of IRE1α* under varying [KIRA6]; half-maximum effective concentration (EC50) values were determined by fitting normalized fluorescence intensities (mean±s.d., n=3). (C) Inhibition of IRE1α* kinase activity in vitro by KIRA6; IC50 values were determined by fitting percent phosphorylation. […] (E) Immunoblots of IRE1α* (WT) incubated with DMSO or KIRA6 (200 μM) followed by treatment with the crosslinker DSS (250 μM); quantification is on the right. (F) Agarose gel of XBP1 cDNA amplicons from INS-1 cells pre-treated with indicated concentrations of KIRA6 for 1 h, followed by 0.5 μg/ml Tm for 8 h. […] (H) KIRAs reduce entry of INS1-1 cells into apoptosis. (I) Immunofluorescence of islets from 10 wk old C57BL/6 mice treated with 0.5 μg/mL Tm plus/minus 0.5 μM KIRA6 for 16 hr. Co-stained for DAPI, insulin, and TUNEL; Quantification of TUNEL positive β-cells (white arrows) normalized to DAPI-positive cells is shown. […] (K) Model of how KIRA6 prevents the terminal UPR by inhibiting IRE1α. […]

INS-1 cells = assay: Terminal UPR endpoints and apoptosis in cells under ER stress; type: cell-based, rat
Excerpt: Using rat insulinoma (INS-1) cells that have a well-developed ER and secrete insulin, the duration and magnitude of ER stress that triggers apoptosis were quantified. Two variables-concentration of ER stress inducer (e.g. Thapsigargin-Tg) and time of exposure to the agent—are directly linked to the percentage of cells entering apoptosis (FIG. 28, A and B). Such regimes can be defined for other ER stress inducers such as the glycosylation inhibitor, tunicamycin (Tm) (FIG. 28,C). Increasing ER stress causes progressive increases in endogenous IRE1α phosphorylation, increases in XBP1 mRNA splicing (FIG. 28, E), depletion through endonucleolytic decay of the ER-localized mRNA, Ins1, which encodes proinsulin (FIG. 28, F), and induction of the pro-apoptotic transcription factor, CHOP (FIG. 28, G).
KIRAs break high-order oligomerization of IRE1α kinase domains, attenuate RNAse activity, and reduce entry of cells into the Terminal UPR.
A model of KIRA6-mediated cytoprotection is shown (FIG. 30, J); it posits that the type II kinase inhibitor, KIRA6, reduces kinase/RNAse homo-oligomerization on the cytosolic face of IRE1α, which consequently reduces RNase hyperactivity under ER stress, preventing pro-apoptotic ER-localized mRNA decay and granting cells extended reprieve from programmed cell death.

retinal photoreceptors = assay: Intravitreal injection in rat models of retinal degeneration (tunicamycin; P23H rhodopsin); type: in vivo
Protocol: Based on known rat vitreous volumes, 2 μl was injected intravitreally into each eye. Tm ([…] final concentration) plus/minus KIRA6 (10 μM final concentration) was injected into SD rats at P21 with an equivalent amount of DMSO as a vehicle control. Retinas were collected at 48 and 72 hrs after injections in Trizol (Invitrogen) for qPCR analysis. Eyes were examined by optical coherence tomography (OCT) 7 days post injection and subsequently collected for morphological analysis. […]
Mice were anaesthetized with 1.5-3% isoflurane, eyes were dilated with 2.5% phenylephrine hydrochloride and 1% tropicamide, and corneas were kept moist with regular application of 2.5% methylcellulose. Eyes were examined using a Micron III retinal imaging system (Phoenix Research Labs). Spectral domain OCT images were acquired with a Micron Image Guided OCT System (Phoenix Research Labs) by averaging 10 to 50 scans.
Outer nuclear layers (ONL) were quantified as previously described (Lewin, A. S. et al., Nature medicine 4, 967-971 (1998)). Briefly, rats were euthanized by CO2 inhalation and their eyes were immediately enucleated and immersed in 2% paraformaldehyde and 2.5% glutaraldehyde in phosphate buffered saline. […] ONL thickness was measured at 54 locations around the retina using Bioquant image analysis (Bioquant; R&M Biometrics).

IRE1α* (WT) = biological target: T2, IRE1α* (WT) (Homo sapiens, UniProt O75460); assay: In vitro cleavage of pre-miR-17 by IRE1α*; type: biochemical
T2 construct: 6-His-tag (N); made in house; host or cells: SF9 insect cells (Bac-to-Bac baculovirus)
Excerpt: FIG. 31. […] Sequence legend (FIG. 31B): SEQ ID NOs:11-15 (in order top to bottom); (FIG. 31C): SEQ ID NO:16.
Described herein is the characterization of four select miRs that decay in vivo upon IRE1α hyperactivation. These are miR-17, miR-34a, miR-96, and miR-125b. WT-IRE1α directly cleaved pre-miR-17 in vitro at sites distinct from those cleaved by DICER, as mapped by primer extension. The scission sites of pre-miR-17 are identical to those of XBP1 mRNA—(G/C)—and diverge at the flanking regions. Thus, by reducing levels of pre-miRs, IRE1α antagonizes DICER action to reduce cellular levels of the corresponding mature miRs. Intriguingly, IRE1α* (I642G), which can be activated by 1NM-PP1 to cleave XBP1 mRNA in vitro, can also cleave pre-miR-17 under 1NM-PP1. An RNAse mutant, IRE1α* (N906A), is compromised for cleavage of pre-miR-17 (FIG. 31, A-C). […] As IRE1α homo-oligomerizes in the ER membrane in proportion to the concentration of unfolded proteins in the ER lumen, it progressively trans-autophosphorylates. Furthermore, salt bridges between phospho-amino acid groups and other residues reinforce higher-order homo-oligomerization of kinase/RNAse domains, as was shown using yeast IRE1. Thus, as IRE1α protein clusters into higher-order oligomers, it acquires increasing activity towards its RNA substrates. […]

IRE1α* [4] = biological target: T1, IRE1α*; conditions: in vitro
Abl = Abl (Homo sapiens, UniProt P00519); assay: Kinase panel counter-screen; type: biochemical; conditions: tested against 12 kinases of the panel
IRE1α* [5] = biological target: T1, IRE1α*; assay: IRE1α* DSS cross-linking to determine oligomer to monomer ratio; conditions: saturating compound (200 μM), DSS 250 μM
Protocol: The reaction was quenched by addition of 50 mM Tris-HCl (pH 7.5). The samples were then boiled, resolved on SDS-PAGE, and immunoblotted for IRE1α with an anti-IRE1α antibody, (visualization and quantification with a LI-COR Odyssey scanner).

T1 sequence (O75460 with tags, fused parts or gaps): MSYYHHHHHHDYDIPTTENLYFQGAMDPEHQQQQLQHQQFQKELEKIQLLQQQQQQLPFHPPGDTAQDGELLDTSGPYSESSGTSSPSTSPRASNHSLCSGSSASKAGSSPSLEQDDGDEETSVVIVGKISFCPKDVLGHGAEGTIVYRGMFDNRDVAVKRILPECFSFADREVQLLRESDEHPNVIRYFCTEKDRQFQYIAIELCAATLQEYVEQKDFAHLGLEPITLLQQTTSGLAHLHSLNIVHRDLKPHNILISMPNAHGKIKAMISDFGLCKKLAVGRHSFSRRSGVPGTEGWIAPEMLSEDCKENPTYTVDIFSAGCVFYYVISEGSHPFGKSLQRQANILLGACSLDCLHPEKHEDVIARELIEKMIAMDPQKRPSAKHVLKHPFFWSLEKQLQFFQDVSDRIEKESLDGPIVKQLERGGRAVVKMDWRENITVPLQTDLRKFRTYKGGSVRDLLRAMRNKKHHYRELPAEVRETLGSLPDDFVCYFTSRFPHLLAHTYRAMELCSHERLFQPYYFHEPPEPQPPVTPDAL
T2 sequence (O75460 with tags, fused parts or gaps): as above
Chain of Abl (P00519 whole entry, species assumed): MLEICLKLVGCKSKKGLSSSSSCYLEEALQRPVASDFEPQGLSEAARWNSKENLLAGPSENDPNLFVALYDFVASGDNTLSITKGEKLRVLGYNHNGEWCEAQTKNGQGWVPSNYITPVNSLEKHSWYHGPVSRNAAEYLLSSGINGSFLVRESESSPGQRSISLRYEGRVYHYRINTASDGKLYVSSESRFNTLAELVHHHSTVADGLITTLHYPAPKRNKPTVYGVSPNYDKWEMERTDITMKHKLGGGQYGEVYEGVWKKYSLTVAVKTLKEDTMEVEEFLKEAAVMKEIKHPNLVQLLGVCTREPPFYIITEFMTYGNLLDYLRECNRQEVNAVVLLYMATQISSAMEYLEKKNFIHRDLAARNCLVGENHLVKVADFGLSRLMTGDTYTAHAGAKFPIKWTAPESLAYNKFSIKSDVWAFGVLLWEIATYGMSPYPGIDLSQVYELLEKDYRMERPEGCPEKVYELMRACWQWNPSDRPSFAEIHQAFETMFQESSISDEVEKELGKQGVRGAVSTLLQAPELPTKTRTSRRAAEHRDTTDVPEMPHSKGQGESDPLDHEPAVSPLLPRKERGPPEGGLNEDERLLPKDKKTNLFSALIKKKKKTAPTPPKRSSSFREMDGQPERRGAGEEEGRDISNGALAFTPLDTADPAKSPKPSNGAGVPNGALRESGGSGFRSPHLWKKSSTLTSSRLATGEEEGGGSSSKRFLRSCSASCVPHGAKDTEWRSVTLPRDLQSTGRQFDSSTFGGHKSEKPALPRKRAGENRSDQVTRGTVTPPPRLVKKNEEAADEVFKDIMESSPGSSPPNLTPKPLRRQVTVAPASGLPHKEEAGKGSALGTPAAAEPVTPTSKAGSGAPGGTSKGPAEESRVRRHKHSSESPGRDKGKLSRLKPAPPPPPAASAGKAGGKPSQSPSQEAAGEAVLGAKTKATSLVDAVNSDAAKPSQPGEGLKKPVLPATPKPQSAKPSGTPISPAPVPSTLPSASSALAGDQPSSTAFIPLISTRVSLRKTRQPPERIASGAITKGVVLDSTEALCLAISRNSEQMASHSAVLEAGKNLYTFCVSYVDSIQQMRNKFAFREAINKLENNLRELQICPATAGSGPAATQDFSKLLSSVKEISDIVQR
Chain of Src (P12931 whole entry, species assumed): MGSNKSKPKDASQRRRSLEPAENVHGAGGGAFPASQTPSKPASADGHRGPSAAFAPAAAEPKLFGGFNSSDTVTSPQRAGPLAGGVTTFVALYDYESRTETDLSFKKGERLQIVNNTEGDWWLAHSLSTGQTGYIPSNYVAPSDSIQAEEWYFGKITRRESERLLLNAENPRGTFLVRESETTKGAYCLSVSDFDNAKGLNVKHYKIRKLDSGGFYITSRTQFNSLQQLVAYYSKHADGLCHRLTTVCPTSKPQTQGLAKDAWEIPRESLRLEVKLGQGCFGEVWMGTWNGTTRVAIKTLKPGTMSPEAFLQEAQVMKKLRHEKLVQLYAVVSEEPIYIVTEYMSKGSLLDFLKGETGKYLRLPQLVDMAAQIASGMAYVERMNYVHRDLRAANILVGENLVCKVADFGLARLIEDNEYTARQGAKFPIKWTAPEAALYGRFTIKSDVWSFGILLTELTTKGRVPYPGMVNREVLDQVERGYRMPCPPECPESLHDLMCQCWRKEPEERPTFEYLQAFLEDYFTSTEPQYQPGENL

CC(C)(C)c1nc(-c2ccc(NC(=O)Nc3cccc(C(F)(F)F)c3)c3ccccc23)c2c(N)nccn12 [KIRA6, 1-(4-(8-amino-3-tert-butylimidazo[1,5-a]pyrazin-1-yl)naphthalen-1-yl)-3-(3-(trifluoromethyl)phenyl)urea]
cytoprotective effects ([1]; Ire1α−/− MEFs): absent
cytoprotective effects ([1]; WT and Xbp1−/− MEFs): still demonstrable
inhibition of IRE1α* autophosphorylation (IRE1α* [2]): dose-dependently reduces kinase autophosphorylation
off-target kinase inhibition (Src): off-target inhibition observed
TXNIP protein accumulation ([3]; C57BL/6 islets exposed to ER stress inducers): prevents TXNIP protein accumulation
cytoprotection of pancreatic islets ([3]; islets treated with Tm): cytoprotective effects
ER-localized endonucleolytic decay of Ins1 mRNA (INS-1 cells; ER stress): inhibits ER-localized endonucleolytic decay of Ins1 mRNA at lower doses of the drug than needed to inhibit XBP1 mRNA splicing
caspase 2 accumulation and cleavage (INS-1 cells; FIG. 31F): reduces caspase 2 accumulation and cleavage
mature miR-17 levels (INS-1 cells; in vivo (cells), FIG. 31E): rescues mature miR-17 levels
terminal UPR endpoints / entry into apoptosis (INS-1 cells; pre-treatment before ER stress inducers): all these terminal UPR endpoints are curtailed
outer nuclear layer (ONL) thickness vs DMSO (retinal photoreceptors; P23H-1 rats at P30, intravitreal 10 μM): higher thickness
photoreceptor loss / viability and function (retinal photoreceptors; intravitreal, rat models of retinal degeneration caused by ER stress): protects viability and preserves function of retinal photoreceptors; also recorded: prevents photoreceptor loss
endogenous IRE1α-mediated XBP1 mRNA splicing (endogenous IRE1α; INS-1, provoked by Tm): inhibits endogenous IRE1α-mediated XBP1 mRNA splicing
endogenous IRE1α auto-phosphorylation (endogenous IRE1α; in vivo (cells), FIG. 30D): inhibits endogenous IRE1α auto-phosphorylation in a dose-dependent manner
cleavage of pre-miR-17 by IRE1α* (IRE1α* (WT)): dose-dependently inhibits IRE1α* (WT) cleavage of pre-miR-17; also recorded: prevents cleavage of pre-miR-17 by IRE1α* in vitro
modulation of IRE1α* RNase activity (XBP1 RNA cleavage) (IRE1α* [4]): inhibits IRE1α* RNase and kinase activities with similar IC50s; also recorded: dose-dependently reduces kinase autophosphorylation and XBP1 splicing activity
off-target kinase inhibition (Abl): off-target inhibition observed
IRE1α* oligomer/monomer ratio (oligomerization state) (IRE1α* [5]): stabilizes the monomeric state; also recorded: reduces concentration-dependent oligomerization
